Patent US20260216152A1, “Combinations Comprising Benzodioxol as GLP-1R Agonists for Use in the Treatment of NASH/NAFLD and Related Diseases” (Pfizer Inc., priority 2019, published 2026)
Each block holds one molecule with its values, some of them ahead of it.

What was measured:
[1] = Thermodynamic stability of crystal forms versus water activity; type: physicochemical; conditions: ambient temperature; 0.2 = 20% RH
Method: Form 1 of Example ACCi is anhydrous and is thermodynamically stable below a water activity of about 0.2 (20% RH) at ambient temperature. Characteristic PXRD peaks of Form 1 of Example ACCi, expressed as 2θ+0.2° 2θ are at 9.6, 10.7, and 11.3.
Form 2 of Example ACCi is a trihydrate and is thermodynamically stable above a water activity of about 0.2 at ambient temperature and 20% RH. Characteristic PXRD peaks of Form 2 of Example ACCi, expressed as 2θ+0.2° 2θ are at 8.4, 9.0, 10.5, 15.0, and 24.7.

circulating FGF19 = experiment: Circulating FGF19 levels after single and multiple doses; type: in vivo
Description: Pharmacological activation of […] has been proposed as a target for the treatment of NASH (Cariou 2008, Porez et al 2012). […] The nuclear receptor FXR, also known as the Bile Acid Receptor (BAR; NR1H4), is responsible for modulating bile acid production, conjugation, and elimination.

[2] = system: fructose-induced steatosis; experiment: Dietary fructose-feeding model with Sprague Dawley rats; type: in vivo
Description: [(1R,5S,6R)-3-{2-[(2S)-2-methylazetidin-1-yl]-6-(trifluoromethyl)pyrimidin-4-yl}-3-azabicyclo[3.1.0]hex-6-yl]acetic acid is a potent reversible inhibitor of human KHK-C The fructose, not glucose, component of dietary sugar is unique in its ability to promote features of metabolic syndrome, including steatosis, insulin resistance, and obesity.

in vivo [3] = conditions: monkey
[4] = Circulating TGs in human subjects; type: in vivo
Description: (§1) It appears that the administration of an ACC inhibitor may have positive effects to lower hepatic TGs and potentially other beneficial effects on treatment of NASH.

in vivo [5] = conditions: rat
hepatic DNL = conditions: Phase 1 study, healthy adult subjects; cited from earlier work
liver malonyl-CoA = experiment: Liver malonyl-CoA in rats; type: in vivo
human ACC isozymes = experiment: Inhibition of human ACC isozymes, incorporation of [14C]-carbonate into [14C]-malonyl-CoA; type: biochemical; conditions: saturating concentrations of ATP
[6] = Western diet fed Sprague Dawley rats, ACCi and DGAT2i as monotherapy and in combination (FIG. 10-18); type: in vivo
Description: as §1

rat ACC isozymes = experiment: Inhibition of rat ACC isozymes, incorporation of [14C]-carbonate into [14C]-malonyl-CoA; type: biochemical; conditions: saturating concentrations of ATP
[7] = biological target: T1, recombinant human DGAT1 (hDGAT1) (Homo sapiens, UniProt O75907); experiment: Selectivity by biochemical assessment versus hDGAT1; conditions: in vitro
T1 sequence (O75907 1-488): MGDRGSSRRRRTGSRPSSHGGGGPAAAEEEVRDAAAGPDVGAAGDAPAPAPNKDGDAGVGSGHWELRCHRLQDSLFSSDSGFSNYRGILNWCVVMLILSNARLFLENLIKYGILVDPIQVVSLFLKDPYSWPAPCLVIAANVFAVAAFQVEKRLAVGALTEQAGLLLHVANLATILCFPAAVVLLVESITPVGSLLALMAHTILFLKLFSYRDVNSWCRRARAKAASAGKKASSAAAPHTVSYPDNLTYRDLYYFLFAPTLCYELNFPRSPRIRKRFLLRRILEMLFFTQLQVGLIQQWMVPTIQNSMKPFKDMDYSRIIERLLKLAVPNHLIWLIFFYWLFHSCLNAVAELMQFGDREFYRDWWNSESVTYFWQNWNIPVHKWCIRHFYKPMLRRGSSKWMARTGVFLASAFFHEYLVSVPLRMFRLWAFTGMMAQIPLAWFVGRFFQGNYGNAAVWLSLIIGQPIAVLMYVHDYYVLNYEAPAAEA
Description: (§2) (S)-2-(5-((3-ethoxypyridin-2-yl)oxy)pyridin-3-yl)-N-(tetrahydrofuran-3-yl)pyrimidine-5-carboxamide is an oral, small molecule DGAT2 inhibitor that is postulated to decrease hepatic triglyceride (TG) synthesis and hepatic lipid burden in NAFLD and NASH.

MGAT3 = biological target: T2, MGAT3 (Homo sapiens, UniProt Q86VF5); experiment: Selectivity by biochemical assessment versus MGAT3; conditions: in vitro
T2 sequence (Q86VF5 1-341): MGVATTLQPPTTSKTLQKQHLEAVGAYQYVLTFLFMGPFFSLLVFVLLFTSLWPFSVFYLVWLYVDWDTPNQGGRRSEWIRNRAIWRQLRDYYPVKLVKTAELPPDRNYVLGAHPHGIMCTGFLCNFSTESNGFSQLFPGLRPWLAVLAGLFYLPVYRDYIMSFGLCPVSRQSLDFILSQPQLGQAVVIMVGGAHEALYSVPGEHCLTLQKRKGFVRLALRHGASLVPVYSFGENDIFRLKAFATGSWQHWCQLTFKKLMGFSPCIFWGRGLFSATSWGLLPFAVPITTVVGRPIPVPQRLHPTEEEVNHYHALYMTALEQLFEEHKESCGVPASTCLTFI
Description: as §2

[8] = Plasma triacylglycerol in rats fed a sucrose-diet; type: in vivo
Description: as §2

[9] = Longer-term studies in western diet fed rats; type: in vivo
Description: as §2

[10] = biological target: monoacylglycerol acyltransferase 2 (MGAT2) (Homo sapiens, UniProt Q3SYC2); experiment: Selectivity by biochemical assessment versus MGAT2; conditions: in vitro
Description: as §2

mouse MGAT1 = biological target: T3, mouse MGAT1 (Mus musculus, UniProt Q91ZV4); experiment: Selectivity by biochemical assessment versus mouse MGAT1; conditions: in vitro
T3 sequence (Q91ZV4 1-335): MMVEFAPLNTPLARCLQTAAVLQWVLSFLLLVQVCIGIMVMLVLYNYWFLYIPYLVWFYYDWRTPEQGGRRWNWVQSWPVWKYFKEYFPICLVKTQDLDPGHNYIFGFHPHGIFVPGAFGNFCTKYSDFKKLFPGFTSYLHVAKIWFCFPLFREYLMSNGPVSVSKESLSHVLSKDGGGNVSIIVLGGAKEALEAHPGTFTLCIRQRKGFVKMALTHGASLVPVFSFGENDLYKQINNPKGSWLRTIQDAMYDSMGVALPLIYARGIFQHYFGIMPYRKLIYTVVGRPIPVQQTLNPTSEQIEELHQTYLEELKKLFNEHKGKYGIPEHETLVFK
Description: as §2

Sequence of monoacylglycerol acyltransferase 2 (MGAT2) (Q3SYC2 whole entry): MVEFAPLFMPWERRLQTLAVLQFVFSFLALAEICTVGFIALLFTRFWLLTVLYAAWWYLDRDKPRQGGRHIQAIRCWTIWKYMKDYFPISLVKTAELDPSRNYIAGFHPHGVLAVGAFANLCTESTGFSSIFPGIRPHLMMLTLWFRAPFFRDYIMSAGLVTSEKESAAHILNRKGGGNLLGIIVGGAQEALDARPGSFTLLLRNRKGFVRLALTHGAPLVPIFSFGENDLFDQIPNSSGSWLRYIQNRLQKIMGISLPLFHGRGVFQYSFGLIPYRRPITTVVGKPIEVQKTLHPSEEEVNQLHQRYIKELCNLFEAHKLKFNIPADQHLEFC

SMILES: COc1cc(C(=O)N2CCC3(CC2)CC(=O)c2c(cnn2C(C)C)C3)cc(-c2ccc(C(=O)O)cc2)n1 [Form 2 of Example ACCi]
water activity at which the form is thermodynamically stable [1]: > 0.2

SMILES: O=C(O)c1cc(F)c2nc(N3C4CC[C@H]3CC(OCc3c(-c5ccccc5OC(F)(F)F)noc3C3CC3)C4)sc2c1 (stereo partly drawn) [Tropifexor, 2-[(1R,3R,5S)-3-({5-cyclopropyl-3-[2-(trifluoromethoxy)phenyl]-1,2-oxazol-4-yl}methoxy)-8-azabicyclo[3.2.1]octan-8-yl]-4-fluoro-1,3-benzothiazole-6-carboxylic acid]
circulating FGF19 levels (circulating FGF19): robust, dose-dependent increase in circulating FGF19 levels

SMILES: COc1cc(C(=O)N2CCC3(CC2)CC(=O)c2c(cnn2C(C)C)C3)cc(-c2ccc(C(=O)O)cc2)n1 [Form 1 of Example ACCi]
water activity at which the form is thermodynamically stable [1]: < 0.2

SMILES: C[C@H]1CCN1c1nc(N2C[C@@H]3[C@@H](CC(=O)O)[C@@H]3C2)cc(C(F)(F)F)n1 [Example KHKi, [(1R,5S,6R)-3-{2-[(2S)-2-methylazetidin-1-yl]-6-(trifluoromethyl)pyrimidin-4-yl}-3-azabicyclo[3.1.0]hex-6-yl]Acetic acid]
incidence of fructose-induced steatosis [2]: reduced the incidence of fructose-induced steatosis

Continued, in another order:

Kp (in vivo [3]): ≥ 100
circulating TGs [4]: elevations in circulating TGs
Kp (in vivo [5]): ≥ 100
circulating TGs (generally measured from plasma) [6]: elevations in circulating TGs
SMILES: COc1cc(C(=O)N2CCC3(CC2)CC(=O)c2c(cnn2C(C)C)C3)cc(-c2ccc(C(=O)O)cc2)n1 [Example ACCi, 4-(4-(1-isopropyl-7-oxo-1,4,6,7-tetrahydrospiro[indazole-5,4′-piperidine]-1′-carbonyl)-6-methoxypyridin-2-yl)benzoic Acid]
hepatic DNL (hepatic DNL): suppress hepatic DNL
liver malonyl-CoA (liver malonyl-CoA): dose and free plasma concentration-dependent reductions in liver malonyl-CoA
inhibition of incorporation of [14C]-carbonate into [14C]-malonyl-CoA (human ACC isozymes): inhibited incorporation of [^14C]-carbonate into [^14C]-malonyl-CoA in a concentration-dependent manner
inhibition of incorporation of [14C]-carbonate into [14C]-malonyl-CoA (rat ACC isozymes): inhibited incorporation of [^14C]-carbonate into [^14C]-malonyl-CoA in a concentration-dependent manner

selectivity versus hDGAT1 [7]: > 2000 fold
selectivity versus MGAT3 (MGAT3): > 2000 fold
selectivity versus MGAT2 [10]: > 2000 fold
selectivity versus mouse MGAT1 (mouse MGAT1): > 2000 fold
SMILES: CCOc1cccnc1Oc1cncc(-c2ncc(C(=O)N[C@H]3CCOC3)cn2)c1 [Example DGAT2i, (S)-2-(5-((3-ethoxypyridin-2-yl)oxy)pyridin-3-yl)-N-(tetrahydrofuran-3-yl)pyrimidine-5-carboxamide]
plasma triacylglycerol [8]: robust, dose-dependent reduction of plasma triacylglycerol
hepatic lipid accumulation [9]: reduced
plasma triacylglycerol [9]: reduced
